≈ marks a conversion by molar mass, not a printed value. Where two headings read alike, the source gives them in different places. Starred links: 1 amine or outer side, 2 acyl side, 3 side chain; linkers in the order of their positions; H or OH if unused. Positions of bridges follow the written chain, without caps; N, C: chain ends. Non-standard residues stand in square brackets, D forms with d. Residues, ends and D or L forms follow the SMILES beside them. *: point of attachment. X2 = CC(C)CCCCC[C@@H](N[*:1])C(=O)[*:2]; S(2-cyclohexylethyl) = C1CCC(CCS*)CC1; S(3-Methylbutyl) = CC(C)CCS*; Dab = NCC[C@H](N)C(=O)O; X1 = CC(C)CCCCS*; X4 = CCCCCCS*
How the values were obtained:
[1] = tested on: P. aeruginosa (ATCC 27853); type: cell-based; details: ATCC 27853
Protocol: (§1) Minimum inhibitory concentrations (MICs) on relevant Gram-negative bacteria were determined by broth microdilution, in accordance with CLSI guidelines. Indicated bacteria were taken from glycerol stocks and incubated overnight on blood agar at 37 °C. Well-isolated colonies were taken, suspended in TSB (5 mL), and grown to an OD600 of 0.5. Compounds to be tested were dissolved in DMSO (6.4 mg/mL), diluted in cation-adjusted Mueller–Hinton Broth (CAMHB) (12.5 and 20 μg/mL Mg^2+ and Ca^2+, respectively), and diluted serially on polypropylene microtiter plates. To the diluted compounds (50 μL per well) was added 50 μL of relevant bacterial suspension, to yield a final concentration of 10^6 CFU/mL. Plates were covered by adhesive gas-permeable membranes and incubated at 37 °C. MIC was read out as the lowest concentration that inhibited visual bacterial growth. Shown values are consistent results from at least duplicate experiments.

[2] = tested on: A. baumannii (ATCC 19606); type: cell-based; details: ATCC 19606
Protocol: as §1

[3] = tested on: K. pneumoniae (ATCC 13883); type: cell-based; details: ATCC 13883
Protocol: as §1

E. coli (ATCC 25922) = type: cell-based; details: ATCC 25922
Protocol: as §1

A. baumannii BAA-747 = type: cell-based; details: BAA-747
Protocol: as §1
(§2) Bacterial strains used for MIC assays and extended MIC assessment
(§3) Strains: The following strains were obtained from BEI Resources, NIAID, NIH: E. Coli M0072, strain
(§4) Table S2. […] Values are given in μg/mL.
(§5) Species Strain ID Resistance Polymyxin B 18b 23a 24a

E. coli 1793 = type: cell-based; details: 1793
Protocol: as §1, §2, §3, §4, §5

A. baumannii RUH-134 = type: cell-based; details: RUH-134
Protocol: as §1, §2, §3, §4, §5

K. pneumoniae KP1.53 = type: cell-based; details: KP1.53
Protocol: as §1, §2, §3, §4, §5

P. aeruginosa 2018-007 = type: cell-based; details: 2018-007
Protocol: as §1, §2, §3, §4, §5

P. aeruginosa ATCC 10145 = type: cell-based; details: ATCC 10145
Protocol: as §1, §2, §3, §4, §5

A. baumannii NRZ-00687 = type: cell-based; details: NRZ-00687
Protocol: as §1, §2, §3, §4, §5

K. pneumoniae ATCC 29665 = type: cell-based; details: ATCC 29665
Protocol: as §1, §2, §3, §4, §5

E. coli M0072 = type: cell-based; details: M0072
Protocol: as §1, §2, §3, §4, §5

P. aeruginosa 2251 = type: cell-based; details: 2251
Protocol: as §1, §2, §3, §4, §5

P. aeruginosa M120 = type: cell-based; details: M120
Protocol: as §1, §2, §3, §4, §5

K. pneumoniae RC0045 = type: cell-based; details: RC0045
Protocol: as §1, §2, §3, §4, §5

E. coli JS136 = type: cell-based; details: JS136
Protocol: as §1, §2, §3, §4, §5

[4] = tested on: differentiated conditionally immortalized PTECs (ciPTECs, OAT-1); experiment: ciPTEC toxicity assay (PrestoBlue); type: cell-based, human
Protocol: ciPTECs (OAT-1) cells,[52],[53] grown to 90–100% confluence, were washed by Hanks’ balanced salt solution (HBSS; Gibco, Life Technologies, Paisley, U.K.) and detached by accutase (4 mL) for 5 min at 37 °C. The cells were then suspended in fresh medium (DMEM/F-12, supplemented with 10% fetal calf serum, insulin (5 μg/mL), transferrin (5 μg/mL), selenium (5 μg/mL) hydrocortisone (35 ng/mL), Epidermal Growth Factor (10 ng/mL) and tri-iodothyronine (40 pg/mL)). Cell density was adjusted to 2.0 × 10^5 cells/mL, of which 100 μL was added to each well of a 96-well plate. The cells were incubated for 24 h at 33 °C, followed by 6 days at 37 °C, in a humidified atmosphere containing 5% (v/v) CO2. The medium was refreshed every second or third day.
Compounds were dissolved and serially diluted in serum-free medium. Differentiated cells were washed once with HBSS and serially diluted compounds (80 μL/well) were transferred to the ciPTEC-containing plate. Compounds were incubated for 24 h at 37 °C; the cells were washed by HBSS, followed by incubation with 10% PrestoBlue cell viability reagent (Thermo Scientific, Vienna, Austria) in HBSS at 37 °C in the dark. Fluorescence was recorded (excitation: 530 nm, emission: 590 nm). Raw data are corrected for PrestoBlue background fluorescence and reported relative to the no-treatment control (cells with medium only). Viability data were fitted with GraphPad Prism software (version 5.03; GraphPad Software, La Jolla, CA), by nonlinear regression with 0 as bottom constraint. Presented data are based on triplicates.
Toxicity assessment on PTECs
Table S1. TC50 values for polymyxin analogues. Toxicity assessment on proximal tubular epithelial cells
performed using PrestoBlue™ assay. TC50 values are derived after non-linear regression analysis on cell viability
correspond to data obtained from 2 different batches of cells/analyses on different days. As the value for
polymyxin B differs 2-fold, values in the manuscript are presented relative to the polymyxin B value.
Compound TC50 (µ M) Compound TC50 (µ M)
Polymyxin B 80 Polymyxin B 41
Figure S3. Representative traces of ciPTECs’ viability after incubation with analogues for 24 hours. Shown data are based on […]

P. aeruginosa (PAO1) = type: cell-based; details: PAO1, 2 h
Protocol: as §1
(§6) Table S3. MIC values [µg/mL] and relative toxicity values for disulfide containing polymyxin derivative 18b and
(§7) non-disulfide containing analogue 45. […]

A. baumanii (ATCC 17961) = type: cell-based; details: ATCC 17961, 2 h
Protocol: as §1, §6, §7

Row | Structure (SMILES) | MIC P. aeruginosa (ATCC 27853) [1] | MIC A. baumannii (ATCC 19606) [2] | MIC K. pneumoniae (ATCC 13883) [3] | MIC E. coli (ATCC 25922) (E. coli (ATCC 25922)) | MIC A. baumannii BAA-747 (A. baumannii BAA-747) | MIC E. coli 1793 (E. coli 1793) | MIC A. baumannii RUH-134 (A. baumannii RUH-134) | MIC K. pneumoniae KP1.53 (K. pneumoniae KP1.53) | MIC P. aeruginosa 2018-007 (P. aeruginosa 2018-007) | MIC P. aeruginosa ATCC 10145 (P. aeruginosa ATCC 10145) | MIC A. baumannii NRZ-00687 (A. baumannii NRZ-00687) | MIC K. pneumoniae ATCC 29665 (K. pneumoniae ATCC 29665) | MIC E. coli M0072 (E. coli M0072) | MIC P. aeruginosa 2251 (P. aeruginosa 2251) | MIC P. aeruginosa M120 (P. aeruginosa M120) | MIC K. pneumoniae RC0045 (K. pneumoniae RC0045) | MIC E. coli JS136 (E. coli JS136) | TC50, Day 2 [4] | ciPTEC Toxicity Index (relative to polymyxin B) [4] | TC50, Day 1 [4] | other results
1 | CC(C)C[C@@H]1NC(=O)[C@@H](Cc2ccccc2)NC(=O)[C@H](CCN)NC(=O)[C@@H](NC(=O)[C@H](CCN)NC(=O)[C@@H](NC(=O)[C@H](CSSCCC2CCCCC2)NC(=O)CN)[C@@H](C)O)CCNC(=O)[C@H]([C@@H](C)O)NC(=O)[C@H](CCN)NC(=O)[C@H](CCN)NC1=O [Compound 23a] (H-GC(S(2-cyclohexylethyl))T[Dab][Dab][Dab][dF]L[Dab][Dab]T; lactam 5-C) | 1 µg/mL (≈ 0.79 µM) | 1 µg/mL (≈ 0.79 µM) | 1 µg/mL (≈ 0.79 µM) | 1 µg/mL (≈ 0.79 µM) | 1 µg/mL (≈ 0.79 µM) | 0.5 µg/mL (≈ 0.395 µM) | 1 µg/mL (≈ 0.79 µM) | 2 µg/mL (≈ 1.58 µM) | 8 µg/mL (≈ 6.32 µM) | 2 µg/mL (≈ 1.58 µM) | 0.5 µg/mL (≈ 0.395 µM) | 1 µg/mL (≈ 0.79 µM) | 0.5 µg/mL (≈ 0.395 µM) | 2 µg/mL (≈ 1.58 µM) | 2 µg/mL (≈ 1.58 µM) | 1 µg/mL (≈ 0.79 µM) | 0.5 µg/mL (≈ 0.395 µM) | 391 µM | 9.5 |  | 
2 | CC(C)CCCCC[C@@H](N)C(=O)N[C@H](C(=O)N[C@@H](CCN)C(=O)N[C@H]1CCNC(=O)[C@H]([C@@H](C)O)NC(=O)[C@H](CCN)NC(=O)[C@H](CCN)NC(=O)[C@H](CC(C)C)NC(=O)[C@@H](Cc2ccccc2)NC(=O)[C@H](CCN)NC1=O)[C@@H](C)O [Compound 45] (H-[X2]T[Dab][Dab][Dab][dF]L[Dab][Dab]T; lactam 4-C) | 1 µg/mL (≈ 0.883 µM) | 0.25 µg/mL (≈ 0.221 µM) | ≤ 0.25 µg/mL |  |  |  |  |  |  |  | 0.5 µg/mL (≈ 0.442 µM) |  |  |  |  |  |  |  | 2.0 |  | MIC P. aeruginosa (PAO1) (P. aeruginosa (PAO1)): 1 µg/mL (≈ 0.883 µM); MIC A. baumanii (ATCC 17961) (A. baumanii (ATCC 17961)): 0.25 µg/mL (≈ 0.221 µM); TC50, Day 2 ([4]; 24 h): 82 µM
3 | CC(C)CCSSC[C@@H](NC(=O)CN)C(=O)N[C@H](C(=O)N[C@@H](CCN)C(=O)N[C@H]1CCNC(=O)[C@H]([C@@H](C)O)NC(=O)[C@H](CCN)NC(=O)[C@H](CCN)NC(=O)[C@H](CC(C)C)NC(=O)[C@@H](Cc2ccccc2)NC(=O)[C@H](CCN)NC1=O)[C@@H](C)O [Compound 22b] (H-G[dC](S(3-Methylbutyl))T[Dab][Dab][Dab][dF]L[Dab][Dab]T; lactam 5-C) | 1 µg/mL (≈ 0.816 µM) | 1 µg/mL (≈ 0.816 µM) | 0.5 µg/mL (≈ 0.408 µM) | 2 µg/mL (≈ 1.63 µM) |  |  |  |  |  |  |  |  |  |  |  |  |  |  |  | 163 µM | 
4 | CCCCCCSSC[C@@H](NC(=O)CN)C(=O)N[C@H](C(=O)N[C@@H](CCN)C(=O)N[C@H]1CCNC(=O)[C@H]([C@@H](C)O)NC(=O)[C@H](CCN)NC(=O)[C@H](CCN)NC(=O)[C@H](CC(C)C)NC(=O)[C@@H](Cc2ccccc2)NC(=O)[C@H](CCN)NC1=O)[C@@H](C)O [Compound 21b] (H-G[dC](X4)T[Dab][Dab][Dab][dF]L[Dab][Dab]T; lactam 5-C) | 2 µg/mL (≈ 1.61 µM) | 1 µg/mL (≈ 0.807 µM) | 1 µg/mL (≈ 0.807 µM) | 2 µg/mL (≈ 1.61 µM) |  |  |  |  |  |  |  |  |  |  |  |  |  |  | 4.4 | 357 µM | 
5 | CC(C)CCSSC[C@H](N)C(=O)N[C@H](C(=O)N[C@@H](CCN)C(=O)N[C@H]1CCNC(=O)[C@H]([C@@H](C)O)NC(=O)[C@H](CCN)NC(=O)[C@H](CCN)NC(=O)[C@H](CC(C)C)NC(=O)[C@@H](Cc2ccccc2)NC(=O)[C@H](CCN)NC1=O)[C@@H](C)O [Compound 18a] (H-C(S(3-Methylbutyl))T[Dab][Dab][Dab][dF]L[Dab][Dab]T; lactam 4-C) | 2 µg/mL (≈ 1.71 µM) | >32 µg/mL | 8 µg/mL (≈ 6.85 µM) | 16 µg/mL (≈ 13.7 µM) |  |  |  |  |  |  |  |  |  |  |  |  |  |  | 9.8 | 786 µM | 
6 | CC(C)CCCCSSC[C@H](NC(=O)CN)C(=O)N[C@H](C(=O)N[C@@H](CCN)C(=O)N[C@H]1CCNC(=O)[C@H]([C@@H](C)O)NC(=O)[C@H](CCN)NC(=O)[C@H](CCN)NC(=O)[C@H](CC(C)C)NC(=O)[C@@H](Cc2ccccc2)NC(=O)[C@H](CCN)NC1=O)[C@@H](C)O [Compound 24a] (H-GC(X1)T[Dab][Dab][Dab][dF]L[Dab][Dab]T; lactam 5-C) | 2 µg/mL (≈ 1.6 µM) | 1 µg/mL (≈ 0.798 µM) | 1 µg/mL (≈ 0.798 µM) | 2 µg/mL (≈ 1.6 µM) | 1 µg/mL (≈ 0.798 µM) | 1 µg/mL (≈ 0.798 µM) | 1 µg/mL (≈ 0.798 µM) | 2 µg/mL (≈ 1.6 µM) | 16 µg/mL (≈ 12.8 µM) | 4 µg/mL (≈ 3.19 µM) | 1 µg/mL (≈ 0.798 µM) | 1 µg/mL (≈ 0.798 µM) | 1 µg/mL (≈ 0.798 µM) | 2 µg/mL (≈ 1.6 µM) | 2 µg/mL (≈ 1.6 µM) | 1 µg/mL (≈ 0.798 µM) | 1 µg/mL (≈ 0.798 µM) | 327 µM | 8.0 |  | 

— PMC9743094, “Synthesis and Evaluation of Polymyxins Bearing Reductively Labile Disulfide-Linked Lipids” (Journal of Medicinal Chemistry, 2022)
